Results published in patent US9676725B2, “S-crystal form of ivabradine hydrochloride, and preparation method and pharmaceutical composition thereof” (Beijing Lunarsun Pharmaceutical Co., LTD., priority 2014, dated 2017).

How the values were obtained:
Format in all cases: physicochemical
[1] = Humidity stability test (moisture and XRD); details: for Moisture: open, humidity 43.1±0.5%, room temperature (20° C.); for Change of crystal form on water absorption: stored in open condition under humidity 43.1±0.5%, water content up to 3%, hydrochloride
Method: The S crystal form of ivabradine hydrochloride as prepared in Example 2 was spread on watch glass to form a thin layer and placed in the upper part of a desiccator, and saturated potassium carbonate solution was placed in the lower part of the desiccator, the humidity in the desiccator was detected (humidity: 43.1±0.5%), conditions were controlled at room temperature (20° C.) and constant humidity, and samples were taken at 1 h, 8 h, 16 h, 24 h, 48 h, 96 h for moisture and XRD tests, and the results are shown in the following table.

[2] = High-temperature stability test at 60° C.; details: for Content / Properties / Relevant substances: Max single impurity / Relevant substances: Total impurities: 60° C.
Text: Thus, the product could be stored stably in storehouse at room temperature.

[3] = Storage of crystal form at room temperature (crystal form transformation); details: 10 days storage at room temperature
Text: Although many crystal forms have been reported in the documents, their stability and preparation methods are not satisfied. […] Delta crystal form contains acetonitrile which can hardly be removed, and it is difficult to distinguish from acetonitrile-containing crystal form. In addition, ivabradine hydrochloride as a hydrochloride is very easy to absorb moisture, while the change of water content may result in changes of many crystal forms, for example, the change between γd and γ, the change between βd and β.

`COc1cc2c(cc1OC)CC(=O)N(CCCN(C)C[C@H]1Cc3cc(OC)c(OC)cc31)CC2.Cl` [3-{3-[{[(7S)-3,4-dimethoxybicyclo[4.2.0]octa-1,3,5-trien-7-yl]-methyl}(methyl)-amino]propyl}-7,8-dimethoxy-1,3,4,5-tetrahydro-2H-3-benzazepin-2-one hydrochloride] showed a Moisture ([1]; 1 h) of 0.46%, a Moisture ([1]; 8 h) of 0.55% and a Moisture ([1]; 16 h) of 0.60%. For the same compound, the Moisture ([1]; 24 h) was 0.82%, the Moisture ([1]; 48 h) was 1.4% and the Moisture ([1]; 96 h) was 3.0%. For the same compound, the “Change of crystal form on water absorption” value ([1]; listed as S crystal form) was “does not change”, the “Change of crystal form on water absorption” value ([1]; listed as the product) was “did not change” and the Content ([2]; the 0th day) was 99.50%. The Properties ([2]; the 0th day) was “White”, the “Relevant substances: Max single impurity” value ([2]; the 0th day) was 0.04% and the “Relevant substances: Total impurities” value ([2]; the 0th day) was 0.19%. The Content ([2]; the 5th day) was 99.40%, the Properties ([2]; the 5th day) was “White” and the “Relevant substances: Max single impurity” value ([2]; the 5th day) was 0.05%. For the same compound, the “Relevant substances: Total impurities” value ([2]; the 5th day) was 0.20%, the Content ([2]; the 10th day) was 99.50% and the Properties ([2]; the 10th day) was “White”. The “Relevant substances: Max single impurity” value ([2]; the 10th day) was 0.05%, the “Relevant substances: Total impurities” value ([2]; the 10th day) was 0.20% and the “Change of indicators, e.g. purity, versus the 0th day” value ([2]; stored at 60° C. for 10 days) was “did not change significantly”. For the same compound, the “Stability of crystal form” value ([2]; stored at 60° C. for 10 days) was “very stable”.

With `COc1cc2c(cc1OC)CC(=O)N(CCCN(C)C[C@H]1Cc3cc(OC)c(OC)cc31)CC2.Cl` [δd crystal form, 3-{3-[{[(7S)-3,4-dimethoxybicyclo[4.2.0]octa-1,3,5-trien-7-yl]-methyl}(methyl)-amino]propyl}-7,8-dimethoxy-1,3,4,5-tetrahydro-2H-3-benzazepin-2-one hydrochloride] the “Crystal form transformation on storage” value [3] was “most of the δd crystal form will transform into α crystal form”.
